Data set [1] can be described thus: CaCo-2 permeability assay Alt 1 (pH gradient 6.5/7.4). Format: in vitro ADME. The conditions noted are these: human, Alt 1: apical to basolateral, pH 6.5 apically, pH 7.4 basolaterally, typically 10 μM, mean value. As for the experimental part:
(§1) CaCo-2 Cell Permeability Assay
(§2) CaCo-2 cells were seeded onto filter membrane at a density of 340500 cells/cm2 for 24 well plates (0.33 cm2/well). The cells were grown in culture medium consisting of Dulbecco's modified Eagle's medium with glucose and L-glutamine supplemented with 10% fetal bovine serum, 100 U/ml penicillin-G, and 100 μg/ml streptomycin and 1% (v/v) 100X non-essential amino acids. The culture medium was replaced every second day and the cells were maintained at 37° C., 95% relative humidity, and 5% CO2. Permeability studies were conducted with the monolayers cultured for 21-28 days with the cell passage numbers between 25 and 50.
Alt 1. the CaCo-2 Permeability Assay Used in Examples 3, 5, 6 and Reference Example.
The CaCo-2 permeabilty assay were performed in the apical to basolateral directions under gradient pH-gradient conditions (pH 6.5 apically, pH 7.4 basolaterally). HBSS containing 25 mM HEPES (pH 7.4) and 25 mM MES (pH 6.5) was used as transport medium. Fully differentiated cell monolayers were washed with transport medium. The drug solutions, typically 10 μM, were prepared in transport medium, pH 6.5 (1% DMSO). The permeability experiment was started by adding 0.2 ml drug solutions on the apical side. The basolateral side contained 0.8 ml of transport medium, pH 7.4. Three inserts with cells and one without were assayed for each drug. Cells were kept in an incubator at 37° C. and shaking. 200 μl samples were taken at 45 and 90 min from the basolateral side. The same volume of transport buffer was added to the basolateral compartments after the first sampling. Compound recovery was assessed by calculating the sum of the cumulatively transported amount and the amount left in the donor side against the initial amount of drug. The samples were analysed online using liquid chromatography tandem mass spectrometry (LC/MS/MS). […] The samples of 25 μl were analysed by liquid scintillation.
(§3) The apparent permeability coefficient is calculated as follows: […]
In general terms: Caco-2 monolayers are a common model of the intestinal barrier.

In the next data set the target is Cdk2/cyclin E (Homo sapiens, UniProt P24941). In words: ATP competition in scintillation proximity Cdk2 assay. The conditions noted are these: mean value; Ki calculated with Km of ATP 0.5 μM. Format: biochemical. As for the experimental part: Determination of ATP Competition in Scintillation Proximity Cdk2 Assay.
The competiton experiments were carried out in duplicate with 10 concentrations of the inhibitor in 96 well clear-bottom microtiter plates. Cdk2/cyclin E enzyme was added at a concentration corresponding to a 80 times dilution of the partially purified bacluloviral infected insect cell lysate in a buffer containing 50 mmol/L HEPES, 10 mmol/L MnCl2, 1 mmol/L dithiothreitol (DTT), 100 μmol/L NaF, 100 μmol/L sodium vanadate, 10 mmol/L sodium glycerophosphate, 5 μg/mL aprotinin, 2.5 μg/mL leupeptin and 100 μmol/L PMSF, pH 7.5. Blank controls without enzyme were used. The reaction was initiated by the addition of 1.25 μg GST-Rb, 0.15 μCi [γ-33P]ATP and unlabelled ATP at a final concentration of 0.1 μmol/L. The final assay volume was 50 μL. After incubation for 60 min at room temperature, each reaction was terminated by the addition of 150 μL stop solution containing 45 μL protein A coated SPA beads in 50 mmol/L HEPES, 3.28 mg antiglutathione-S-transferase, and 5.5 mmol/L EDTA and 35 μmol/L ATP. The plate was centrifuged at 2000 rpm for 5 min and the radioactivity was determined in a liquid scintillation counter (1450 MicroBeta Trilux, Perkin Elmer, Finland). The Km value of ATP for Cdk2 used to calculate the inhibition constants (Ki) of the various compounds, was 0.5 μM

The next data set has as its target T1, recombinant human GSK3β (Homo sapiens, UniProt P49841).
T1 construct: purchased Dundee University, UK
Nature of the data set: ATP competition in scintillation proximity GSK3β assay. The conditions noted are these: for Ki: mean value, Ki calculated with Km of ATP 20 μM; for Selectivity GSK3β vs CDK2: ratio of CDK2 Ki to GSK3β Ki. Format: biochemical. As for the experimental part: Determination of ATP Competition in Scintillation Proximity GSK3β Assay.
The inhibition experiments were carried out in duplicate with 10 concentrations of the inhibitor in 384 well clear-bottom microtitre plates. A biotinylated peptide substrate (Biotin-Ala-Ala-Glu-Glu-Leu-Asp-Ser-Arg-Ala-Gly-Ser(PO3H2)-Pro-Gln-Leu (AstraZeneca, Lund)), was added at a final concentration of 1 mmol/L in an assay buffer (pH 7.0) containing 0.1 mU recombinant human GSK3β (Dundee University, UK), (1 nmol/L active enzyme), 10 mmol/L morpholinepropanesulfonic acid (MOPS), 0.3 mmol/L EDTA, 0.01% (v/v) β-mercaptoethanol, 0.003% (w/v) polyethylene 23 lauryl ether (Brij 35), 0.4% glycerol and 0.02 mg bovine serum albumine (BSA) and preincubated for 10 minutes. The reaction was initiated by the addition of 0.06 mCi [γ-33P]ATP (Amersham, UK) and unlabelled ATP in 30 mmol/L Mg(Ac)2 to a final concentration of […] ATP. The final assay volume was […]. Blank controls without peptide substrate were used. After incubation for 15 min at room temperature, the reaction was terminated by the addition of stop solution containing 1.3 mmol/L EDTA, 13 mmol/L ATP, 0.02% Triton™X-100 and 0.15 mg streptavidin coated SPA beads. After a 5 minutes centrifugation at 2000 rpm, the radioactivity was measured in a liquid scintillation counter (1450 MicroBeta Trilux, Perkin Elmer, Finland). The Km value of ATP for GSK3β, used to calculate the inhibition constants (Ki) of the various compounds, was 20 μM.

The nature of data set [2]: CaCo-2 A to B permeability assay Alt 2 (pH 7.4). Format: in vitro ADME. The following applies: human, Alt 2: apical to basolateral, pH 7.4, 10 μM, mean value. As for the experimental part: as §1, §2
Alt 2. the CaCo-2 A to B Permeability Assay Used in Examples 2-4, 7-8.
The CaCo-2 A to B assay was performed in the apical to basolateral direction (each in duplicates) at pH 7.4. HBSS containing 25 mM HEPES (pH 7.4) was used as transport medium. The drug solutions, typically 10 μM, were prepared in transport medium (1% DMSO). Studies of six compounds can be performed in one 24 well plate that generates one 96 deepwell analysis plate (maximum capacity 6 plates=36 compounds and 6 deep well plates). The CaCo-2 cell monolayers were washed once with HBSS for 10 minutes prior to start. Transport buffer, 800 μL, (HBSS, pH 7.4) is first dispensed to the basal side of the monolayer. The assay is then initiated by addition of 225 μL of each compound (10 μM) to the apical side. Samples are withdrawn directly (Donor 0) and at 60 min (Donor end and Receiver 60) post addition of test compound. 25 μL and 150 μL are withdrawn from the donor compartment and the receiver compartment, respectively. During washing-step and incubation with compounds the transwell plates are placed in a shaking incubator at 480 rpm and 37° C. The integrity of the epithelial cell monolayer is monitored by measuring the amount of radiolabelled [^14C]mannitol (low passive paracellular diffusion) in the donor compartment at time 0 min to 60 min. Luma Plate 96-well is used for analysis of [14C]mannitol. Compound recovery was assessed by calculating the sum of the cumulatively transported amount and the amount left in the donor side against the initial amount of drug. The samples were analysed online using liquid chromatography tandem mass spectrometry (LC/MS/MS).
as §3
where ΔQ/Δt is the total amount of substance transported into the receiver chamber per unit time, A is the surface area (cm^2), and C0 the starting donor concentration. The apparent permeability Papp is expressed in ×10-6 cm/sec.

The structures appear in SMILES notation. Counter-ions that a name gives are not always drawn.

What is called melting point is the temperature of the solid-liquid transition. As a reminder, the Papp A→B is how fast a substance crosses the layer from the apical side. A word on the Ki: it is the dissociation constant of the complex between target and ligand, obtained from inhibition or displacement.

T1 sequence (P49841 whole entry): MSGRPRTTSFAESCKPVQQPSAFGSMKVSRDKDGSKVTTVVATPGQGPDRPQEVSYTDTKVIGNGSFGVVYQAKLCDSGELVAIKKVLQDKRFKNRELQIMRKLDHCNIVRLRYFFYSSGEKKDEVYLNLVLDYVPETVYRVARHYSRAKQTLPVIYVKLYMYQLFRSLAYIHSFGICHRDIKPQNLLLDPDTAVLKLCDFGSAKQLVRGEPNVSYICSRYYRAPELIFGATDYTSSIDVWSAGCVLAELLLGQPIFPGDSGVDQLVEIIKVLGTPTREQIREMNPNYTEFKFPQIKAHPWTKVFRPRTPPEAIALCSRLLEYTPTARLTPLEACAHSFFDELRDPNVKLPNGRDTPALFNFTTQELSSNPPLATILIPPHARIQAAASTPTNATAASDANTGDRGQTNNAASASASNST

Consider `Cc1ncc(-c2nc(Nc3cc(F)c(CN4CCOCC4)cc3F)ncc2F)n1C1CCOCC1` (as salt: succinate) [Ex 5, N-(2,5-Difluoro-4-(morpholinomethyl)phenyl)-5-fluoro-4-(2-methyl-1-(tetrahydro-2H-pyran-4-yl)-1H-imidazol-5-yl)pyrimidin-2-amine], for which the melting point stood at 177 °C.

`Cc1ncc(-c2nc(Nc3ccc(CN4CCOCC4)cc3F)ncc2F)n1C1CCOCC1` [Ex 1, 5-Fluoro-N-(2-fluoro-4-(morpholinomethyl)phenyl)-4-(2-methyl-1-(tetrahydro-2H-pyran-4-yl)-1H-imidazol-5-yl)pyrimidin-2-amine] had a Papp A→B at 90 min, 10 µM in data set [1] of 36 ×10⁻⁶ cm/s. For the same compound, at Cdk2/cyclin E, the Ki was 308 nM. In addition, on recombinant human GSK3β, the Ki was 15 nM and the “Selectivity GSK3β vs CDK2” value came out at 20.

Consider `Cc1ncc(-c2nc(Nc3ccc(CN4CCOC[C@H]4C)cc3F)ncc2F)n1C1CCOCC1` [Ex 2, 5-Fluoro-N-(2-fluoro-4-(((R)-3-methylmorpholino)methyl)phenyl)-4-(2-methyl-1-(tetrahydro-2H-pyran-4-yl)-1H-imidazol-5-yl)pyrimidin-2-amine hydrochloride], for which, on Cdk2/cyclin E, the Ki is 290 nM. The same compound had a Papp A→B at 60 min, 10 µM in data set [2] of 39 ×10⁻⁶ cm/s. Also, at recombinant human GSK3β, the Ki was 5 nM and the “Selectivity GSK3β vs CDK2” value is recorded as 58.

Consider `Cc1ncc(-c2nc(Nc3ccc(CN4CCOC[C@@H]4C)cc3F)ncc2F)n1C1CCOCC1` [Ex 3, 5-Fluoro-N-(2-fluoro-4-(((S)-3-methylmorpholino)methyl)phenyl)-4-(2-methyl-1-(tetrahydro-2H-pyran-4-yl)-1H-imidazol-5-yl)pyrimidin-2-amine hydrochloride], for which the Ki on Cdk2/cyclin E was 940 nM. The same compound came in with a Papp A→B at 60 min, 10 µM in data set [2] of 56 ×10⁻⁶ cm/s. Further, at recombinant human GSK3β, the Ki is 30 nM and the “Selectivity GSK3β vs CDK2” value is on record as 31.

With `Cc1ncc(-c2nc(Nc3ccc(CN4[C@@H](C)COC[C@@H]4C)cc3F)ncc2F)n1C1CCOCC1` [Ex 4, N-(4-(((3S,5S)-3,5-Dimethylmorpholino)methyl)-2-fluorophenyl)-5-fluoro-4-(2-methyl-1-(tetrahydro-2H-pyran-4-yl)-1H-imidazol-5-yl)pyrimidin-2-amine hydrochloride], at Cdk2/cyclin E, the Ki was 318 nM. This compound also came in with a Papp A→B at 60 min, 10 µM in data set [2] of 44 ×10⁻⁶ cm/s. Moreover, on recombinant human GSK3β, the Ki is 11 nM and the “Selectivity GSK3β vs CDK2” value worked out at 29.

With `Cc1ncc(-c2nc(Nc3cc(F)c(CN4CCOCC4)cc3F)ncc2F)n1C1CCOCC1` [Ex 5, N-(2,5-Difluoro-4-(morpholinomethyl)phenyl)-5-fluoro-4-(2-methyl-1-(tetrahydro-2H-pyran-4-yl)-1H-imidazol-5-yl)pyrimidin-2-amine], the Papp A→B at 90 min, 10 µM in data set [1] is 45 ×10⁻⁶ cm/s. Further, on Cdk2/cyclin E, the Ki is 127 nM. Besides, at recombinant human GSK3β, the Ki is 4.9 nM and the “Selectivity GSK3β vs CDK2” value turned out to be 26.

With `Cc1ncc(-c2nc(Nc3cc(F)c(CN4CCOCC4)cc3F)ncc2F)n1C1CCOCC1` [Ex 6, N-(2,5-Difluoro-4-(morpholinomethyl)phenyl)-5-fluoro-4-(2-methyl-1-(tetrahydro-2H-pyran-4-yl)-1H-imidazol-5-yl)pyrimidin-2-amine hydrochloride], the figures for the Ki at Cdk2/cyclin E and on recombinant human GSK3β were 133 nM and 4.9 nM, respectively. Moreover, the “Selectivity GSK3β vs CDK2” value on recombinant human GSK3β (hydrochloride) amounted to 27.

`Cc1ncc(-c2nc(Nc3cc(F)c(CN4CCOC[C@@H]4C)cc3F)ncc2F)n1C1CCOCC1` [Ex 7, N-(2,5-Difluoro-4-(((S)-3-methylmorpholino)methyl)phenyl)-5-fluoro-4-(2-methyl-1-(tetrahydro-2H-pyran-4-yl)-1H-imidazol-5-yl)pyrimidin-2-amine]: the values for the Ki at Cdk2/cyclin E and on recombinant human GSK3β were 175 nM and 11 nM, respectively. Moreover, in data set [2], the Papp A→B at 60 min, 10 µM is 44 ×10⁻⁶ cm/s. Also, the “Selectivity GSK3β vs CDK2” value on recombinant human GSK3β was determined as 16.

As for `Cc1ncc(-c2nc(Nc3cc(F)c(CN4[C@@H](C)COC[C@@H]4C)cc3F)ncc2F)n1C1CCOCC1` [Ex 8, N-(4-(((3S,5S)-3,5-Dimethylmorpholino)methyl)-2,5-difluorophenyl)-5-fluoro-4-(2-methyl-1-(tetrahydro-2H-pyran-4-yl)-1H-imidazol-5-yl)pyrimidin-2-amine], the Ki on Cdk2/cyclin E is 222 nM. This compound also yielded a Papp A→B at 60 min, 10 µM in data set [2] of 40 ×10⁻⁶ cm/s. Besides, at recombinant human GSK3β, the Ki was 7.7 nM and the “Selectivity GSK3β vs CDK2” value is 29.

In data set [1], `Cc1ncc(-c2nc(Nc3ccc(CN4CCOCC4)cc3)ncc2F)n1C1CCOCC1` [Reference example, 5-fluoro-4-(2-methyl-1-(tetrahydro-2H-pyran-4-yl)-1H-imidazol-5-yl)-N-(4-(morpholinomethyl)phenyl)pyrimidin-2-amine, reference compound] registered a Papp A→B at 90 min, 10 µM of 26 ×10⁻⁶ cm/s. The Ki on Cdk2/cyclin E is 110 nM; at recombinant human GSK3β, 8.1 nM. The “Selectivity GSK3β vs CDK2” value at recombinant human GSK3β was 14.

The values above are taken from patent US20120077813A1, “Imidazole Substituted Pyrimidines Useful in the Treatment of Glycogen Synthase Kinase-3 Related Disorders such as Alzheimer's Disease” (ASTRAZENECA AB, priority 2009, published 2012).
